Data set [1] has as its system Huh-7. As to the kind of experiment: Antiproliferative activity against human Huh-7 cells assessed as inhibition of cell growth at 10 uM measured after 72 hrs by CCK8 assay. The data set is classed as functional.
The subject of data set [2] is Hep 3B2. Put plainly: Antiproliferative activity against human Hep3B cells assessed as inhibition of cell growth at 10 uM measured after 72 hrs by CCK8 assay. The class given is functional. (Tetrazolium dyes change colour on reduction, which living cells bring about.)
The subject of data set [3] is Huh-7. Put plainly: Antiproliferative activity against human Huh-7 cells assessed as inhibition of cell growth measured after 72 hrs by CCK8 assay. Particulars: Huh-7, 72 h. The class given is functional, cell-based.
Data set [4] has as its system Hep 3B2. Put plainly: Antiproliferative activity against human Hep3B cells assessed as inhibition of cell growth measured after 72 hrs by CCK8 assay. The data set is classed as functional, cell-based.
The nature of data set [5]: Half life in Sprague-Dawley rat at 5 mg/kg, iv measured upto 24 hrs by LC/MS/MS analysis. The data set is classed as ADME, organism-based. The note with it: in vivo.
A short description of data set [6]: Tmax in Sprague-Dawley rat at 5 mg/kg, iv measured upto 24 hrs by LC/MS/MS analysis. The data set is classed as ADME, organism-based. Particulars: in vivo.
Data set [7] is described as follows: Initial plasma concentration in Sprague-Dawley rat at 5 mg/kg, iv measured upto 24 hrs by LC/MS/MS analysis. The data set is classed as ADME, organism-based.
Data set [8] in a line: Cmax in Sprague-Dawley rat at 5 mg/kg, iv measured upto 24 hrs by LC/MS/MS analysis. The class given is ADME, organism-based. Also on record: time < 24 hrs, dose 5 mg/kg, route iv. The note with it: in vivo.
The nature of data set [9]: AUC(0 to t) in Sprague-Dawley rat at 5 mg/kg, iv measured upto 24 hrs by LC/MS/MS analysis. The data set is classed as ADME, organism-based. Also on record: time < 24 hrs, dose 5 mg/kg, route iv. Particulars: in vivo.
Data set [10] can be described thus: AUC(0 to infinity) in Sprague-Dawley rat at 5 mg/kg, iv measured upto 24 hrs by LC/MS/MS analysis. The data set is classed as ADME, organism-based. Also on record: dose 5 mg/kg, time < 24 hrs, route iv. Particulars: in vivo.
Data set [11] in a line: Apparent volume of distribution in Sprague-Dawley rat at 5 mg/kg, iv measured upto 24 hrs by LC/MS/MS analysis. The data set is classed as ADME, organism-based. Particulars: in vivo, read-out: Vz.
The nature of data set [12]: Clearance in Sprague-Dawley rat at 5 mg/kg, iv measured upto 24 hrs by LC/MS/MS analysis. The data set is classed as ADME, organism-based. Particulars: in vivo.
Data set [13] in a line: Mean residence time (0 to t) in Sprague-Dawley rat at 5 mg/kg, iv measured upto 24 hrs by LC/MS/MS analysis. The data set is classed as ADME, organism-based. The note with it: in vivo.
A short description of data set [14]: Half life in Sprague-Dawley rat at 20 mg/kg, po measured upto 24 hrs by LC/MS/MS analysis. The class given is ADME, organism-based. Particulars: in vivo.
Data set [15] can be described thus: Tmax in Sprague-Dawley rat at 20 mg/kg, po measured upto 24 hrs by LC/MS/MS analysis. The class given is ADME, organism-based. Particulars: in vivo.
Data set [16] in a line: Cmax in Sprague-Dawley rat at 20 mg/kg, po measured upto 24 hrs by LC/MS/MS analysis. The data set is classed as ADME, organism-based. Also on record: dose 20 mg/kg, time < 24 hrs, route po. The note with it: in vivo.
Data set [17] can be described thus: AUC(0 to t) in Sprague-Dawley rat at 20 mg/kg, po measured upto 24 hrs by LC/MS/MS analysis. Particulars: in vivo. Also on record: dose 20 mg/kg, time < 24 hrs, route po. The class given is ADME, organism-based.
Data set [18] is described as follows: AUC(0 to infinity) in Sprague-Dawley rat at 20 mg/kg, po measured upto 24 hrs by LC/MS/MS analysis. The data set is classed as ADME, organism-based. Also noted: dose 20 mg/kg, time < 24 hrs, route po. The note with it: in vivo.
Data set [19] can be described thus: Mean residence time (0 to t) in Sprague-Dawley rat at 20 mg/kg, po measured upto 24 hrs by LC/MS/MS analysis. The data set is classed as ADME, organism-based. The note with it: in vivo.

Turning to `C=CC(=O)Nc1ccc(-c2cnc(NC(=O)Nc3ccc(CN4CCN(C)CC4)c(C(F)(F)F)c3)cn2)cn1`, the figures for the inhibition at 10 µM in the data set on Huh-7 [1] and in the data set on Hep 3B2 [2] were 84.5% and 86.1%, respectively.
Regarding `C/C=C/C(=O)Nc1ccc(Oc2ccc(NC(=O)Nc3ccc(CN4CCN(C)CC4)c(C(F)(F)F)c3)c(C)c2)cn1`, the inhibition (commonly the change of the read-out against control, counted positive when it falls) at 10 µM with Huh-7 [1] was found to be 86.7%; in the data set with Hep 3B2 [2] it was 87%. For the same compound, the values for the IC50 with Huh-7 [3] and with Hep 3B2 [4] were 1.02 µM and 1.12 µM, respectively.
Consider `C=CC(=O)Nc1ccc(-c2ccc(NC(=O)Nc3ccc(CN4CCN(CC)CC4)c(C(F)(F)F)c3)c(C)c2)cn1`, for which the inhibition at 10 µM came to 80.3% in the data set on Huh-7 [1] and 85.4% with Hep 3B2 [2].
For `CC#CC(=O)Nc1ccc(Oc2ccc(NC(=O)Nc3ccc(CN4CCN(C)CC4)c(C(F)(F)F)c3)c(C)c2)cn1` the same measures were 93.2% and 92.3%.
For `C=CC(=O)Nc1ccc(-c2ccc(NC(=O)Nc3ccc(CN4CCN(C)CC4)c(C(F)(F)F)c3)nc2)cn1`, in that order: 59% and 67%.
Take `C=CC(=O)Nc1ccc(-c2ccc(NC(=O)Nc3ccc(CN4CCN(C)CC4)c(C(F)(F)F)c3)c(C)c2)cn1`: the inhibition at 10 µM was found to be 94.8% in the data set on Huh-7 [1] and 94.6% in the data set on Hep 3B2 [2]. Besides, the values for the half-maximal inhibitory concentration (IC50) in the data set on Huh-7 [3] and in the data set with Hep 3B2 [4] were 3.35 µM and 3.18 µM, respectively.
As to `Cc1ccc(C(=O)Nc2ccc(CN3CCN(C)CC3)c(C(F)(F)F)c2)cc1C#Cc1cnc2cccnn12` [PONATINIB], the values for the inhibition at 10 µM in the data set on Huh-7 [1] and with Hep 3B2 [2] were 90.5% and 95.5%, respectively. Besides, the IC50 – broadly, the concentration at which inhibition is half-maximal – with Huh-7 [3] came to 0.99 µM; in the data set on Hep 3B2 [4], 0.72 µM.
With `C=CC(=O)Nc1ccc(-c2ccc(NC(=O)Nc3ccc(CN4CCN(C)CC4)c(C(F)(F)F)c3)cc2F)cn1`, the inhibition at 10 µM turned out to be 96.7% in the data set with Huh-7 [1] and 95.7% in the data set on Hep 3B2 [2].
On to `Cc1cc(-c2ccc(NC(=O)CCl)nc2)ccc1NC(=O)Nc1ccc(CN2CCN(C)CC2)c(C(F)(F)F)c1`, for which the figures for the inhibition at 10 µM in the data set with Huh-7 [1] and with Hep 3B2 [2] were 80.9% and 87.6%, respectively. Moreover, the figures for the half-inhibitory concentration (IC50) in the data set with Huh-7 [3] and in the data set with Hep 3B2 [4] were 21.5 µM and 22.1 µM, respectively.
As to `C=C(F)C(=O)Nc1ccc(-c2ccc(NC(=O)Nc3ccc(CN4CCN(C)CC4)c(C(F)(F)F)c3)c(C)c2)cn1`, the results for the inhibition at 10 µM with Huh-7 [1] and in the data set with Hep 3B2 [2] were 93% and 91.2%, respectively. Further, the IC50 is 3.38 µM in the data set on Huh-7 [3] and 3.24 µM in the data set with Hep 3B2 [4].
Consider `C=CC(=O)Nc1ccc(Oc2ccc(NC(=O)Nc3ccc(CN4CCN(C)CC4)c(C(F)(F)F)c3)c(C)c2)cn1`, for which the inhibition at 10 µM in the data set on Huh-7 [1] was determined as 87.2%; in the data set on Hep 3B2 [2], 84.7%.
In the case of `C=CC(=O)Nc1ccc(-c2ccc(NC(=O)Nc3ccc(CN4CCN(C)CC4)c(C(F)(F)F)c3)cc2)cn1`, the inhibition at 10 µM with Huh-7 [1] was determined as 94.8%; in the data set on Hep 3B2 [2], 95.8%.
Take `C=CC(=O)Nc1ccc(-c2ccc(NC(=O)Nc3ccc(CN4CCN(C)CC4)c(C(F)(F)F)c3)cc2C)cn1`: the inhibition at 10 µM in the data set with Huh-7 [1] came out at 96.9%; with Hep 3B2 [2], 95.3%.
As for `C=CC(=O)Nc1ccc(Oc2ccc(NC(=O)Nc3ccc(CN4CCN(C)CC4)c(C(F)(F)F)c3)cc2)cn1`, the inhibition at 10 µM turned out to be 97.7% with Huh-7 [1] and 91% in the data set on Hep 3B2 [2]. The IC50 with Huh-7 [3] was 0.25 µM; with Hep 3B2 [4], 0.22 µM. Moreover, the results for the half-life in [5] and in data set [14] were 4.75 h and 3.12 h, respectively. Also, the results for the Tmax in [6] and in [15] were 4.98 min and 2.67 h, respectively. The C0 at 24 h in [7] stood at 4930 ng/mL. Besides, the Cmax (commonly the peak of the concentration-time curve) was found to be 4190 ng/mL in data set [8] and 23.7 ng/mL in data set [16]. The AUC(0-t) (in general, exposure summed from dosing to a finite time, without extrapolation to infinity) at 24 h in data set [9] came to 4240 ng·h/mL; in [17] it was 140 ng·h/mL. The AUC(0-inf) (as a rule, the area under the concentration-time curve extrapolated to infinity) in [10] was 4260 ng·h/mL; in [18] it was 149 ng·h/mL. Moreover, the Vd in data set [11] was 8.1 L/kg. Besides, the clearance (commonly a measure of how efficiently the substance is removed, as volume per time) in [12] was 19.6 mL/min/kg. Also, the MRT last – broadly, a mean duration of stay, worked out from the concentration-time curve – at 24 h in data set [13] amounted to 1.25 h; in [19], 3.99 h.
Consider `C=CC(=O)Nc1ccc(-c2ccc(NC(=O)Nc3ccc(CN4CCN(C)CC4)c(C(F)(F)F)c3)c(Cl)c2)cn1`, for which the inhibition at 10 µM in the data set with Huh-7 [1] worked out at 91.4%; in the data set on Hep 3B2 [2], 99.1%. Also, the IC50 in the data set with Huh-7 [3] is 1.62 µM; in the data set with Hep 3B2 [4], 1.27 µM.

These data come from ChEMBL document CHEMBL5257129, “Design, synthesis, and anticancer evaluation of arylurea derivatives as potent and selective type II irreversible covalent FGFR4 inhibitors” (Bioorg Med Chem, 2023).
